# Source: US20160287602A1, “METHODS FOR PROMOTING MOTOR NEURON SURVIVAL” (PRESIDENT AND FELLOWS OF HARVARD COLLEGE, priority 2013, published 2016)
# Entries after “also recorded” stand apart in the source; their conditions may differ.
# How the values were obtained:
# [1] = system: phosphorylated BAD (pBAD); test: Phosphorylated BAD immunostaining in surviving MNs; assay type: cell-based, mouse; conditions: absence of TFs
# Hb9::GFP MNs [2] = test: MN survival in co-culture with primary WT or SOD1^G93A astrocytes; assay type: cell-based, mouse; conditions: Hb9::GFP MNs on WT or SOD1^G93A astrocytes
# Protocol: (§1) We sought to examine whether AKIs decrease the toxic effect of SOD1^G93A mutant astrocytes. We first cultured primary astrocytes from wild type (WT) and SOD1^G93A mice and plated FACS purified MNs on top. We observed significant cell death when MNs were cultured on mutated astrocytes compared to WT astrocytes. ZM447439 improved both Hb9::GFP and SOD1^G93A/Hb9::GFP MN survival.
# SOD1^G93A/Hb9::GFP MNs [3] = test: as above; assay type: cell-based, mouse
# Protocol: as §1
# [4] = system: wild-type (Hb9::GFP) mouse ESC derived MNs; test: MN survival after trophic factor withdrawal, mixed culture; assay type: cell-based; conditions: in presence of neurotrophic factors; day 7, 14 & 21
# Hb9::GFP MNs [5] = test: MN morphology analysis of surviving MNs; assay type: cell-based, mouse; conditions: absence of trophic factors, extended time point
# Source text: (§2) To examine whether MNs kept alive by AKIs maintain morphological integrity we carried out a series of analyses on surviving MNs in the absence of trophic factors. […] We also used an automated imager to analyze the number of synapses per MN by counting co-localized regions positive for the presynaptic marker synapsin and the postsynaptic marker PSD-95.
# SOD1^G93A/Hb9::GFP MNs [6] = test: MN morphology analysis of surviving MNs; assay type: cell-based, mouse; conditions: absence of trophic factors, extended time point
# Source text: as §2
# [7] = system: Hb9::GFP and SOD1^G93A/Hb9::GFP MNs; test: Microarray analysis of gene expression in MNs; assay type: cell-based, mouse; conditions: compound in the absence of TFs versus -TF
# Source text: (§3) Next we sought to investigate the mechanism by which AKIs promote MN survival. To evaluate this comprehensively we performed microarray analysis to compare gene expression between MNs cultured with: 1) Trophic factors (+TF), 2) No trophic factors (−TF), 3) VX-680 in the absence of TFs, and 4) ZM447439 in the absence of TFs. […] Gene expression was compared between +TF and −TF, VX-680 and −TF, and ZM447439 and −TF. With a cut off of more than 3 fold difference, there were 85 genes overlapping in all three comparison in Hb9::GFP MNs and 57 in SOD1^G93A/Hb9::GFP MNs. We found 39 overlapping genes when we compared both types of MNs (FIG. 5B). […] We analyzed the shortlist of 39 genes by using DAVID functional annotation bioinformatics microarray analysis software to find the potential pathways involved in MN survival. […] PKA is known to phosphorylate BAD protein, leading to increased cell survival (Jose M. LIZCANO et al., 2000; Julian Downward et al., Nature cell biology 1999; Komaki S et al., Neurosci Lett 2012). […] We further investigated this pathway by lentivirus knockdown of Prkarlb.
# [8] = system: FACS purified Hb9::GFP MNs; test: MN survival after trophic factor withdrawal, FACS purified MN culture; assay type: cell-based, mouse; conditions: FACS purified MN cultures, trophic factors withdrawn, FIG. 1C
# Source text: ESC-derived MN culture achieves ˜30%-50% MN differentiation efficiency and is therefore highly heterogeneous. To examine whether AKIs specifically act in a cell-autonomous or non-cell-autonomous manner, we established a highly enriched MN culture through FACS purification based on Hb9::GFP reporter expression. […] Next, we asked whether AKIs exert their survival promoting effect only cell-autonomously or whether they also function non-cell-autonomously to rescue MN death. To address this question we produced astrocyte conditioned medium (ACM) by incubating primary murine astrocytes with AKIs (VX-680 and ZM447439). The ACM was then dialyzed using a dialyzer with pore size appropriate for eliminating residual AKIs.
# MNs = test: Lentivirus knockdown of Prkarlb, MN survival; assay type: cell-based, mouse
# Source text: as §3
# [9] = system: synaptophysin in Hb9::GFP MN cultures; test: Synaptophysin immunoblotting; assay type: cell-based, mouse
# Hb9::GFP MNs [10] = test: Number of synapses per MN (synapsin/PSD-95 co-localization, automated imager); assay type: cell-based, mouse
# Source text: as §2
# SOD1^G93A/Hb9::GFP MNs [11] = test: as above; assay type: cell-based, mouse
# Source text: as §2
# [12] = system: synaptophysin in SOD1^G93A/Hb9::GFP MN cultures; test: Synaptophysin immunoblotting; assay type: cell-based, mouse
# [13] = system: wild-type (Hb9::GFP) mouse ESC derived MNs; test: MN survival after trophic factor withdrawal, mixed culture; assay type: cell-based
# Source text: In the present study, we have screened highly specific small molecule kinase inhibitors to identify those which could promote MN survival. For the screen, we generated MNs from wild-type (Hb9::GFP) and SOD1^G93A (SOD1^G93A/Hb9::GFP) mouse ESCs using published protocols (Di Giorgio et al., 2007). We withdrew trophic factors as a standard method to induce MN death. Cell plating density as well as timing for initiation and duration of trophic factor withdrawal were used exactly as published to achieve ˜80% MN death in 3 days (FIG. 1A) (Yang et al., 2013). […] We continued to work with this compound class as it reproducibly promoted survival of both MNs types and the effect was robust. We further reasoned that since this compound class promoted survival of both MN types, the probability of its working in other contexts such as on human MNs and in the ALS mouse model was maximum. […]
# Trophic factors were removed and ZM447439 was added to the cultures as previously and MN survival was analyzed on day 7, 14 & 21.
# [14] = system: human ESC derived MNs on SOD1^G93A astrocytes; test: Human ESC derived MNs co-cultured with astrocytes; assay type: cell-based
# Source text: We generated MNs from a human ESC line expressing an HB9::GFP transgene [HuES-3/Hb9::GFP (Di Giorgio et al., 2008)]. Human ESC derived MN cultures were pre-treated with AraC to eliminate progenitor cells. We induced MN death by again withdrawing trophic factors. […] We also investigated the toxic effect of SOD1^G93A astrocytes on human ESC derived MN survival. We found significant death of human MNs cultured on mutant astrocytes.
smiles,measurement,setting,value
"COc1cc2c(Nc3ccc(NC(=O)c4ccccc4)cc3)ncnc2cc1OCCCN1CCOCC1 [ZM447439, N-[4-[[6-Methoxy-7-[3-(4-morpholinyl)propoxy]-4-quinazolinyl]amino]phenyl]benzamide]",levels of phosphorylated BAD (pBAD),[1],increased levels
same,MN survival in astrocyte co-culture,Hb9::GFP MNs [2],improved
same,MN survival in astrocyte co-culture,SOD1^G93A/Hb9::GFP MNs [3]; SOD1^G93A/Hb9::GFP MN co-cultured with SOD1^G93A astrocytes,less of an increase in survival
same,MN survival in astrocyte co-culture,SOD1^G93A/Hb9::GFP MNs [3]; SOD1^G93A/Hb9::GFP MNs on WT or SOD1^G93A astrocytes,improved
same,basal MN death,[4],prevented
same,"MN morphology (total neurite length, maximum neurite length, number of extremities and number of nodes per MN)",Hb9::GFP MNs [5],preserved all of these features
same,"MN morphology (total neurite length, maximum neurite length, number of extremities and number of nodes per MN)",SOD1^G93A/Hb9::GFP MNs [6],preserved all of these features
same,"expression of genes related to synapse formation (Syt1, Snap25 and Sv2c, Map2 and Dcx)",[7],upregulated
same,MN survival,[8],rescued MN survival in a dose dependent fashion
same,MN survival on knocking down Prkarlb in the presence of the compound,MNs,effectively decreased MN survival
same,expression of synaptic protein synaptophysin,[9],increased expression
same,number of synapses per MN,"Hb9::GFP MNs [10]; absence of trophic factors, Hb9::GFP MNs",preserved the number of synapses
same,number of synapses per MN,Hb9::GFP MNs [10]; neurotrophin containing medium,increased the number of synapses per MN
same,number of synapses per MN,"SOD1^G93A/Hb9::GFP MNs [11]; absence of trophic factors, SOD1^G93A/Hb9::GFP MNs",preserved the number of synapses
same,number of synapses per MN,SOD1^G93A/Hb9::GFP MNs [11]; neurotrophin containing medium,increased the number of synapses per MN
same,expression of synaptic protein synaptophysin,[12],increased expression
same,"survival effect in dose dependent assay, comparison among AKIs","[13]; mixed MN culture, FIG. 1B",most effective and potent in promoting MN survival; also recorded: most effective and potent of all AKIs assayed
same,survival of MNs (number of surviving MNs),"[13]; trophic factor withdrawal, 3 days, wild-type Hb9::GFP MNs",consistently increased the survival of MNs; also recorded: most potent and robust at increasing survival
same,long term MN survival,"[13]; trophic factors removed, day 7, 14 & 21, Hb9::GFP MNs",increased survival
same,death of human MNs cultured on mutant astrocytes,[14]; SOD1^G93A astrocytes co-culture,completely rescued; also recorded: decreases the toxic effect
same,size of human MN,[14]; co-cultured with both wild-type and mutant astrocytes,significantly increased
